Values after ≈ are worked out from the molar mass of the structure shown. Where two headings read alike, the source gives them in different places. Positions of bridges follow the written chain, without caps; N, C: chain ends. Non-standard residues stand in square brackets, D forms with d. Residues, ends and D or L forms follow the SMILES beside them. Cha = N[C@@H](CC1CCCCC1)C(=O)O; NMeNva = CCC[C@H](NC)C(=O)O; NMeC = CN[C@@H](CS)C(=O)O; NMeA = CN[C@@H](C)C(=O)O; dAbu = CC[C@@H](N)C(=O)O; dNMeA = CN[C@H](C)C(=O)O; Nva = CCC[C@H](N)C(=O)O; Abu = CC[C@H](N)C(=O)O; Nleu = CC(C)CNCC(=O)O; NPrGly = CCCNCC(=O)O; NEtG = CCNCC(=O)O

The test system of data set [1] is Mdr1 knockout Madin–Darby canine kidney (MDCK) cells.
Description: (§1) We also tested the permeabilities of the pure compounds in a cell-based trans-well permeability assay using Mdr1 knockout Madin–Darby canine kidney (MDCK) cells which minimize the endogenous efflux activity of traditional MDCK cells.[54]
(§2) The gMDCKI cell line (overexpressed cell line of Madin -Darby Canine Kidney which acquired from the NIH)
(§3) maintained in DMEM medium supplemented with 1% pen -strep, 5 µg/mL Plasmocin, and 10% FBS under
(§4) standard culture conditions (37 °C, 95% humidity, and 5% CO2), were seeded (0.75 x 10^5 cells) on the HTS
(§5) Transwell-96 permeable support (Corning) to form a confluent monolayer for two days.
(§6) All experimental steps were fully automated on Hamilton Vantage. Compound stock solution (1 mM in
(§7) DMSO) was diluted (10 μM final in HBSS, pH 7.4) with Lucifer Yellow as leakage indicator (20 μM). After
(§8) washing with HBSS buffer, the solution of test compounds was added to the apical side of the monolayers.
(§9) The plate was incubated for 3 h at 37 °C. T0 samples (10 µL of the 10 µM compounds diluted solution with
(§10) LY) were transferred to a 96-well plate, and then 40 µL of HBSS was added. After 3 hours, 50 μL basolateral
(§11) samples in the receiving plate were transferred to a fresh 96-well plate and added 100 μL of IS solution
(§12) (Propranolol). LY were read by plate reader and the samples were analyzed by LC/MS/MS.
(§13) The apparent permeability coefficient (Papp) is calculated from the permeation rate and compound
concentration at t=0h and t=3h. Where:
(§14) dQ/dt: amount of product present in the basal (A-B) or apical (B-A) compartment as a function of time
A: area of transwell (cm2).
(§15) C0: initial concentration of product applied in the apical (A -B) or basal (B-A) compartment (nmol/ml).
The nature of data set [2]: in vitro. Conditions: PAMPA.
Description: (§16) assay was carried out with a 96-well donor plate with 0.45 μ hydrophobic Immobilon-P membrane supports
(Millipore MAIPNTR10) and a 96-well Teflon acceptor plate (Millipore MSSACCEPTOR). The PAMPA
protocol then proceeded as follows:
(§17) Donor well solutions were prepared to a volume of 1 000 µL with the analytes as a solution in 1X
(§18) PBS pH 7.4 and 5% DMSO. To a 3 mL Eppendorf tube was added 950 µL of 1X PBS pH 7.4, 40
Analyte – 10 µM per compound
(§19) sonicated (5 min) to ensure full dissolution of the lecithin. The donor membrane plate was turned
(§20) upside down and bottom of the membranes exposed. 5 µL of the 1% soy lecithin solution in
(§21) dodecane was then placed on the bottom of the membrane, allowing the drop to spread across the
full area of the membrane. Any membranes with visible damage were not used in the assay. The
(§22) membranes were allowed to equilibrate for 5 min before loading.
3. Each well within the Teflon block acceptor plate that was to be used in the assay was then loaded
(§23) with 300 µL of 1X PBS pH 7.4 and 5% DMSO.
(§24) Working without break, 150 µL of each donor well solution was transferred from the to the 96-well
(§25) donor plate. Each mixture of interest was r un in quadruplicate, using a new well for each replicate.
(§26) As soon as the 96-well donor plate was finished being loaded, it was gently placed into the 96-well
(§27) Teflon acceptor plate, taking care not to trap any air bubbles beneath the membrane.
(§28) The donor/acceptor plates were covered gently with the lid to minimize evaporation and transferred
(§29) gently as a system to a sealed chamber and left to sit overnight at room temperature. The chamber
(§30) was kept from drying by placing a wet paper towel within to prevent evaporation.
(§31) After ~19-20 hours the donor plate was removed from the acceptor plate.
(§32) 50 µL of each well (donor and acceptor) were transferred to a 96 -well plate and diluted with 50 µL
(§33) of methanol prior to heat sealing and quantification by UPLC -MS.
The nature of data set [3]: in vitro. The note with it: dog, pH 7.4.
Description: as §1, §2, §3, §4, §5, §6, §7, §8, §9, §10, §11, §12, §13
concentration at t=0h and t=3h. Where:
as §14
A: area of transwell (cm2).
as §15
The nature of data set [4]: in vitro. Conditions: PAMPA, pH 7.4, Permeability (Papp) PAMPA (mixture).
Description: (§34) Passive permeabilities of the 36 compounds were measured in multiplex as mixtures of six compounds each using the parallel artificial membrane permeability assay (PAMPA).[44]−[46]
(§35) Protocol is identical for both mixture and pure compound analysis.
(§36) Two of the following: Carbamazepine (CBZ), propranolol (Prop), and 1NMe35 were
(§37) included as internal standards and prepared as DMSO stocks at a concentration of 2 000 µM.
as §16
(§38) (Millipore MAIPNTR10) and a 96-well Teflon acceptor plate (Millipore MSSACCEPTOR).
protocol then proceeded as follows:
as §17, §18
(§39) The solutions were vortexed and set aside.
Analyte – 10 µM per compound
(§40) A 1% solution of soy lecithin in dodecane was freshly prepared in a 3 mL Eppendorf tube and
as §19, §20, §21
(§41) full area of the membrane. Any membranes with visible damage were not used in the assay.
as §22
(§42) Each well within the Teflon block acceptor plate that was to be used in the assay was then loaded
as §23, §24, §25, §26, §27, §28, §29, §30, §31, §32, §33
Another data set is described as follows: physchem. The note with it: pH 7.4, aqueous with cosolvent or surfactant or cyclodextrin, kinetic from dmso stock.
For data set [5] the following is noted: PAMPA, 10 µM, pH 7.4.
Description: as §34, §35, §36, §37, §16, §38
protocol then proceeded as follows:
as §17, §18, §39
Analyte – 10 µM per compound
as §40, §19, §20, §21, §41, §22, §42, §23, §24, §25, §26, §27, §28, §29, §30, §31, §32, §33
Setting [6] is: pH 7.4, Permeability (Papp) PAMPA (indiv.).

Description for physchem: Kinetic Solubility PBS Protocol
4 µL of 10 mM compound in DMSO stock was added to 196 µL 1 X PBS pH 7.4 in a 96 -well microplate to
get a final concentration of 200 µM to shake for 24 hours at 1000 rpm. The sample was filtered sample
using a 96-Multiscreen HTS filter plate (Millipore MSSL BPC50) and a positive pressure manifold.

Regarding `CCOC(=O)[C@@H]1CSCC(=O)N[C@H](CC)C(=O)N(C)[C@@H](C)C(=O)N[C@@H](CC(C)C)C(=O)N(C)[C@H](C)C(=O)N(CC(C)C)CC(=O)N[C@H](CC(C)C)C(=O)N(C)[C@@H](C)C(=O)N[C@@H](CC(C)C)C(=O)N1C` [A1-7L, O=C(N(C)[C@H](C(OCC)=O)CSCC(N[C@@H](C(N(C)[C@@H](C)C(N[C@@H](CC(C)C)C(N(C)[C@H](C)C(N(CC(C)C)CC(N[C@@H]1CC(C)C)=O)=O)=O)=O)=O)CC)=O)[C@H](CC(C)C)NC([C@H](C)N(C)C1=O)=O] ({CH2CO}-[dAbu][NMeA]L[dNMeA][Nleu][dL][NMeA]L[NMeC]-OEt; thioether N-9), the “MDCK Pe_avg” value in data set [1] (resynthesized stereoscan compounds, 10 μM, HBSS pH 7.4, 3 h) came out at 6.41 ×10⁻⁶ cm/s.

Broadly, the Papp is a coefficient for how fast a substance crosses the barrier. As to `CCOC(=O)[C@@H]1CSCC(=O)N[C@H](CC)C(=O)N(CC(C)C)CC(=O)N[C@@H](CC(C)C)C(=O)N(C)[C@H](C)C(=O)N(C)[C@@H](C)C(=O)N[C@H](CC(C)C)C(=O)N(C)[C@@H](C)C(=O)N[C@@H](CC(C)C)C(=O)N1C` [B1-7L, O=C([C@@H](NC([C@@H](N(C([C@H](NC([C@@H](N(C([C@H](N(C)C([C@@H](NC(CN1CC(C)C)=O)CC(C)C)=O)C)=O)C)C)=O)CC(C)C)=O)C)C)=O)CC(C)C)N([C@@H](CSCC(N[C@H](CC)C1=O)=O)C(OCC)=O)C] ({CH2CO}-[dAbu][Nleu]L[dNMeA][NMeA][dL][NMeA]L[NMeC]-OEt; thioether N-9), in the data set “in vitro [2]” (pH 7.4, PAMPA Papp), the Papp at 10 µM stood at 5.7 ×10⁻⁶ cm/s. In addition, the “MDCK Pe_avg” value in data set [1] (dog, MDCK, 3 h, 10 µM, pH 7.4) amounted to 1.21 ×10⁻⁶ cm/s. This molecule displayed a Papp at 3 h, 10 µM in the data set “in vitro [3]” (MDCK) of 1.2 ×10⁻⁶ cm/s.

By kinetic solubility is commonly meant the concentration staying in solution when a stock, usually in DMSO, is diluted into the medium. One may read the Papp A→B as the apparent permeability from the apical to the basolateral side of a cell layer. A low value points to slow passage. On to `CCC[C@@H]1NC(=O)[C@H](C)N(C)C(=O)[C@H](CC(C)C)NC(=O)CSC[C@@H](C(=O)OCC)N(C)C(=O)[C@H](CC(C)C)NC(=O)[C@H](C)N(C)C(=O)[C@H](CC(C)C)NC(=O)CN(CCC)C(=O)[C@H]2CCCN2C1=O` [LA07, O=C(N(C)[C@H](C(OCC)=O)CSCC(N[C@H](C(N(C)[C@@H](C)C(N[C@@H](CCC)C(N1[C@H](CCC1)C(N(CCC)CC(N[C@H]2CC(C)C)=O)=O)=O)=O)=O)CC(C)C)=O)[C@H](CC(C)C)NC([C@H](C)N(C)C2=O)=O] ({CH2CO}-L[NMeA][Nva][dP][NPrGly]L[NMeA]L[NMeC]-OEt; thioether N-9), for which the results for the Papp at 10 µM in “in vitro [4]” and in “in vitro [2]” (setting [6]) were 3 ×10⁻⁶ cm/s and 1.3 ×10⁻⁶ cm/s, respectively. In the data set “physchem”, this molecule showed a solubility (kinetic) at 24 h of 122 µM (≈ 123 µg/mL). For the same molecule, the apparent permeability from apical to basolateral (Papp A→B) at 3 h, 10 µM in the data set “in vitro [3]” (MDCK) is 8.4 ×10⁻⁶ cm/s. In addition, the “%R_avg” value in data set [5] is 6.6%.

Turning to `CCC[C@@H]1NC(=O)[C@H](C)N(C)C(=O)[C@H](CC(C)C)NC(=O)CSC[C@@H](C(=O)OCC)N(C)C(=O)[C@H](CC(C)C)NC(=O)[C@H](C)N(C)C(=O)[C@H](CC2CCCCC2)NC(=O)CN(CC)C(=O)[C@H]2CCCN2C1=O` [LA09, O=C(N(C)[C@H](C(OCC)=O)CSCC(N[C@H](C(N(C)[C@@H](C)C(N[C@@H](CCC)C(N1[C@H](CCC1)C(N(CC)CC(N[C@H]2CC3CCCCC3)=O)=O)=O)=O)=O)CC(C)C)=O)[C@H](CC(C)C)NC([C@H](C)N(C)C2=O)=O] ({CH2CO}-L[NMeA][Nva][dP][NEtG][Cha][NMeA]L[NMeC]-OEt; thioether N-9), the solubility (kinetic) at 24 h in “physchem” turned out to be 10 µM (≈ 10.3 µg/mL). Besides, the apparent permeability (Papp) at 10 µM in the data set “in vitro [2]” (setting [6]) came out at 0.2 ×10⁻⁶ cm/s. In the data set “in vitro [3]” (MDCK), this molecule gave a Papp A→B at 3 h, 10 µM of 5.1 ×10⁻⁶ cm/s. Also, in data set [5], the “%R_avg” value came to 7.5%.

As for `CCOC(=O)[C@@H]1CSCC(=O)N[C@@H](CC(C)C)C(=O)N(CC)CC(=O)N[C@@H](CC(C)C)C(=O)N2CCC[C@@H]2C(=O)N(C)[C@@H](C)C(=O)N[C@@H](CC)C(=O)N(C)[C@@H](C)C(=O)N[C@@H](CC(C)C)C(=O)N1C` [LB02, O=C(N(C)[C@H](C(OCC)=O)CSCC(N[C@H](C1=O)CC(C)C)=O)[C@H](CC(C)C)NC([C@H](C)N(C)C([C@H](CC)NC([C@H](C)N(C)C([C@@H]2N(C([C@H](CC(C)C)NC(CN1CC)=O)=O)CCC2)=O)=O)=O)=O] ({CH2CO}-L[NEtG]L[dP][NMeA][Abu][NMeA]L[NMeC]-OEt; thioether N-9), the results for the Papp at 10 µM in “in vitro [4]” and in the data set “in vitro [2]” (setting [6]) were 1 ×10⁻⁶ cm/s and 1.1 ×10⁻⁶ cm/s, respectively. For the same molecule, the solubility (kinetic) at 24 h in the data set “physchem” was 126 µM (≈ 124 µg/mL). Moreover, the figures for the apparent permeability from apical to basolateral (Papp A→B) at 3 h, 10 µM in the data set “in vitro [3]” (MDCK) and in “in vitro [3]” were 1.8 ×10⁻⁶ cm/s and 1.77 ×10⁻⁶ cm/s, respectively. Also, in data set [5], the “%R_avg” value came to 51.1%.

In “physchem”, `CCCN1CC(=O)N[C@@H](CC(C)C)C(=O)N2CCC[C@@H]2C(=O)N(C)[C@@H](C)C(=O)N[C@@H](CC)C(=O)N(C)[C@@H](C)C(=O)N[C@@H](CC(C)C)C(=O)N(C)[C@H](C(=O)OCC)CSCC(=O)N[C@@H](CC(C)C)C1=O` [LB04, O=C(N(C)[C@H](C(OCC)=O)CSCC(N[C@H](C1=O)CC(C)C)=O)[C@H](CC(C)C)NC([C@H](C)N(C)C([C@H](CC)NC([C@H](C)N(C)C([C@@H]2N(C([C@H](CC(C)C)NC(CN1CCC)=O)=O)CCC2)=O)=O)=O)=O] ({CH2CO}-L[NPrGly]L[dP][NMeA][Abu][NMeA]L[NMeC]-OEt; thioether N-9) gave a solubility (kinetic) at 24 h of 105 µM (≈ 104 µg/mL). Besides, the “MDCK Papp_avg” value in data set [1] (dog, MDCK, 3 h, 10 µM, pH 7.4) came out at 2.6 ×10⁻⁶ cm/s. Further, the apical-to-basolateral permeability (Papp A→B) at 3 h, 10 µM in the data set “in vitro [3]” (MDCK) was 2.6 ×10⁻⁶ cm/s. Besides, in data set [5], the “%R_avg” value came out at 35.8%.

In turn, `CCC[C@@H]1NC(=O)CN(CCC)C(=O)[C@H](CC(C)C)NC(=O)CSC[C@@H](C(=O)OCC)N(C)C(=O)[C@H](CC(C)C)NC(=O)[C@H](C)N(C)C(=O)[C@H](CC(C)C)NC(=O)[C@H](C)N(C)C(=O)[C@H]2CCCN2C1=O` [LB07, O=C(N(C)[C@H](C(OCC)=O)CSCC(N[C@H](C1=O)CC(C)C)=O)[C@H](CC(C)C)NC([C@H](C)N(C)C([C@H](CC(C)C)NC([C@H](C)N(C)C([C@@H]2N(C([C@H](CCC)NC(CN1CCC)=O)=O)CCC2)=O)=O)=O)=O] ({CH2CO}-L[NPrGly][Nva][dP][NMeA]L[NMeA]L[NMeC]-OEt; thioether N-9) came in with a kinetic solubility at 24 h in “physchem” of 132 µM (≈ 133 µg/mL). The Papp at 10 µM was 3.1 ×10⁻⁶ cm/s in the data set “in vitro [2]” (pH 7.4, PAMPA Papp) and 2.2 ×10⁻⁶ cm/s in “in vitro [2]” (setting [6]). Also, the Papp A→B at 3 h, 10 µM was 3.2 ×10⁻⁶ cm/s in “in vitro [3]” (MDCK) and 3.15 ×10⁻⁶ cm/s in the data set “in vitro [3]”. The Papp at 3 h, 10 µM in “in vitro [3]” (MDCK) turned out to be 3.2 ×10⁻⁶ cm/s.

`CCC[C@@H]1NC(=O)CN(CC)C(=O)[C@H](CC(C)C)NC(=O)CSC[C@@H](C(=O)OCC)N(C)C(=O)[C@H](CC(C)C)NC(=O)[C@H](C)N(C)C(=O)[C@H](CC2CCCCC2)NC(=O)[C@H](C)N(C)C(=O)[C@H]2CCCN2C1=O` [LB09, O=C(N(C)[C@H](C(OCC)=O)CSCC(N[C@H](C1=O)CC(C)C)=O)[C@H](CC(C)C)NC([C@H](C)N(C)C([C@H](CC2CCCCC2)NC([C@H](C)N(C)C([C@@H]3N(C([C@H](CCC)NC(CN1CC)=O)=O)CCC3)=O)=O)=O)=O] ({CH2CO}-L[NEtG][Nva][dP][NMeA][Cha][NMeA]L[NMeC]-OEt; thioether N-9) registered a kinetic solubility at 24 h in “physchem” of 19 µM (≈ 19.7 µg/mL). Moreover, the apparent permeability (Papp) at 10 µM in “in vitro [2]” (setting [6]) was determined as 1.4 ×10⁻⁶ cm/s. In the data set “in vitro [3]” (MDCK), this molecule gave an apparent permeability from apical to basolateral (Papp A→B) at 3 h, 10 µM of 4.4 ×10⁻⁶ cm/s. The “%R_avg” value in data set [5] came to 6.4%.

The molecule `CCC[C@@H]1NC(=O)[C@H](C)N(C)C(=O)[C@H](CC(C)C)NC(=O)CSC[C@@H](C(=O)OCC)N(C)C(=O)[C@H](CC(C)C)NC(=O)[C@H](C)N(C)C(=O)[C@H](CC(C)C)NC(=O)[C@H](CCC)N(C)C(=O)[C@H]2CCCN2C1=O` [LC07, O=C(N(C)[C@H](C(OCC)=O)CSCC(N[C@H](C(N(C)[C@@H](C)C(N[C@@H](CCC)C(N1[C@H](CCC1)C(N(C)[C@@H](CCC)C(N[C@H]2CC(C)C)=O)=O)=O)=O)=O)CC(C)C)=O)[C@H](CC(C)C)NC([C@H](C)N(C)C2=O)=O] ({CH2CO}-L[NMeA][Nva][dP][NMeNva]L[NMeA]L[NMeC]-OEt; thioether N-9) gave a solubility (kinetic) at 24 h in the data set “physchem” of 109 µM (≈ 111 µg/mL). Moreover, in “in vitro [2]” (setting [6]), the Papp at 10 µM came out at 1.1 ×10⁻⁶ cm/s. In “in vitro [3]” (MDCK), the apparent permeability from apical to basolateral (Papp A→B) at 3 h, 10 µM is 3.9 ×10⁻⁶ cm/s. In addition, the “%R_avg” value in data set [5] is 4.5%.
